Biological target: human P2X3 receptor (Homo sapiens (Human), UniProt P56373)
Experiment: Evaluation of human P2X3 receptor inhibitory activity (Fluo-3 calcium fluorescence, FDSS 3000, ATP stimulation);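 further: stimulus was 50 nM ATP with fluorescence followed for 3 min, and the response per well was peak post-ATP fluorescence divided by the reading at measurement start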
Format: cell-based
[1] = C6BU-1 cells stably expressing human P2X3 receptor
[2] = C6BU-1 cells stably expressing human P2X3 receptor, Fluo-3 fluorescence, FDSS 3000
[3] = human P2X3 receptor, Test Example 1

human P2X3 receptor, sequence (P56373 whole entry): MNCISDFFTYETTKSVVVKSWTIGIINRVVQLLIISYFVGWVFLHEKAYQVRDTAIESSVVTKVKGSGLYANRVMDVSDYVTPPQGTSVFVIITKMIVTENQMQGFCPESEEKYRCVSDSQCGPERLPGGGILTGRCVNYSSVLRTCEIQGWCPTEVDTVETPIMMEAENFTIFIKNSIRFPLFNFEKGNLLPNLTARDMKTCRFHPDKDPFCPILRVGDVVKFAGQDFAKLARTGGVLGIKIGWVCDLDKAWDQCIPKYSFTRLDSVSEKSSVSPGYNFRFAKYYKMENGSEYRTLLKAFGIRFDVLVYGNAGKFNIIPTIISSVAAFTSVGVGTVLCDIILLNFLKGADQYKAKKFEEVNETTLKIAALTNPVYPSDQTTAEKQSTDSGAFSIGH

SMILES	IC50 [1]	IC50 [2]	further results
COC(=O)CCCn1c(=O)[nH]/c(=N\c2ccc(Oc3ccnc(C)c3)cc2)n(Cc2ccc(Cl)cc2)c1=O [Compound I-1396]	4 nM	–	–
Cc1nc2ccc(/N=c3\[nH]c(=O)n(CCC(N)=O)c(=O)n3Cc3ccc(Cl)cc3)cc2s1 [Compound I-1670]	–	7 nM	–
Cc1ccc(Cn2c(=O)n(CC3(C(=O)O)CC3)c(=O)[nH]/c2=N\c2ccc(OC(C)C)c(C)c2)cc1 [Compound I-0935]	–	38 nM	–
C[C@@H](C(=O)O)[C@H](C)n1c(=O)[nH]/c(=N\c2ccc3oc4c(c3c2)CCCCC4)n(Cc2ccc(Cl)cc2)c1=O [Compound I-1747]	–	201 nM	–
CCCCCOc1ccc(/N=c2\[nH]c(=O)n(CCC(=O)OCC)c(=O)n2Cc2ccc(C)cc2)cc1 [Compound I-1058]	–	43 nM	–
CCOC(=O)CCCn1c(=O)[nH]/c(=N\c2ccc(OCC)c(Cl)c2)n(Cc2ccc(C)cc2)c1=O [Compound I-0862]	–	–	IC50 [3]: 10 nM
COC(=O)[C@@H](C)Cn1c(=O)[nH]/c(=N\c2ccc(OCC(C)C)cc2)n(Cc2ccc(Cl)cc2)c1=O [Compound I-0749]	27 nM	–	–
COC(=O)NCCn1c(=O)[nH]/c(=N\c2ccc(OC(C)C)c(F)c2)n(Cc2ccc(Cl)cc2)c1=O [Compound I-0607]	12 nM	–	–
CCn1c(=O)[nH]/c(=N\c2ccc(Oc3cncc(C(N)=O)c3)cc2)n(CC2CCC3(CC2)CC3)c1=O [Compound I-2178]	5 nM	–	–
CCOc1ccc2cc(/N=c3\[nH]c(=O)n(CCC(=O)O)c(=O)n3Cc3ccc(C)cc3)ccc2c1 [Compound I-2130]	790 nM	–	–
COC(=O)[C@@H](C)[C@@H](C)n1c(=O)[nH]/c(=N\c2ccc(CC(C)C)c(Cl)c2)n(Cc2ccc(C)cc2)c1=O [Compound I-1439]	39 nM	–	–
COCCn1c(=O)[nH]/c(=N\c2ccc(Oc3cncc(C(=O)OC)c3)cc2)n(Cc2ccc(Cl)cc2)c1=O [Compound I-2537]	–	–	IC50 [3]: 5 nM
COC(=O)CCn1c(=O)[nH]/c(=N\Nc2ccc(OC)cc2)n(Cc2ccc(C)cc2)c1=O [Compound I-1801]	–	687 nM	–
CCOC(=O)C(F)(F)Cn1c(=O)[nH]/c(=N\c2ccc(OC(C)C)c(C)c2)n(Cc2ccc(C)cc2)c1=O [Compound I-0855]	–	–	IC50 [3]: 10 nM
Cc1ccc(Cn2c(=O)n([C@@H](C)[C@@H](C)C(=O)O)c(=O)[nH]/c2=N\c2ccc(OCC3CC3)cc2)cc1 [Compound I-0972]	–	38 nM	–
COC(=O)[C@@H](C)[C@@H](C)n1c(=O)[nH]/c(=N\c2ccc(OCC3CC3)cc2)n(Cc2ccc(Cl)cc2)c1=O [Compound I-1316]	54 nM	–	–

SMILES	IC50 [1]	IC50 [2]	further results
COC(=O)[C@@H](C)Cn1c(=O)[nH]/c(=N\c2cnc(OC3CCC3)c(C)c2)n(Cc2ccc(Cl)cc2)c1=O [Compound I-1479]	–	–	IC50 [3]: 20 nM
C[C@@H](Cn1c(=O)[nH]/c(=N\c2ccc(Oc3ccccc3)cc2)n(Cc2ccc(Cl)cc2)c1=O)C(=O)O [Compound I-0991, (S)-1-(4-chlorobenzyl)-3-(2-hydroxycarbonylpropyl)-6-(4-phenoxyphenylimino)-1,3,5-triazinane-2,4-dion]	–	22 nM	–
Cc1ccc(Cn2c(=O)n(CCC(=O)O)c(=O)[nH]/c2=N\c2ccc(OC(C)C)cc2F)cc1 [Compound I-2049]	85 nM	–	–
C=Cc1cc(/N=c2\[nH]c(=O)n(C[C@H](C)C(=O)OC)c(=O)n2Cc2ccc(C)cc2)ccc1OCC [Compound I-1191]	22 nM	–	–
COC(=O)CC1(Cn2c(=O)[nH]/c(=N\c3ccc(OC(C)C)c(C)c3)n(Cc3ccc(Cl)cc3)c2=O)CC1 [Compound I-0978]	–	13 nM	–
Cc1ccc(Cn2c(=O)n(C[C@H](C)C(=O)O)c(=O)[nH]/c2=N\c2ccc(OC(C)C)c(Br)c2)cc1 [Compound I-0909]	–	7 nM	–
Cc1nsc(Oc2ccc(/N=c3\[nH]c(=O)n(CCC(=O)O)c(=O)n3Cc3ccc(Cl)cc3)cc2)n1 [Compound I-2697]	–	–	IC50 [3]: 19 nM
CC1(Cn2c(=O)[nH]/c(=N\c3ccc(OCC4CC4)cc3)n(Cc3ccc(Cl)cc3)c2=O)COC(C)(C)OC1 [Compound I-2615]	–	–	IC50 [3]: 7 nM
CCOC(=O)Cn1c(=O)[nH]/c(=N\c2ccc(Oc3ccon3)cc2)n(Cc2ccc(Cl)cc2)c1=O [Compound I-2627]	–	–	IC50 [3]: 7 nM
Cc1ccc(Cn2c(=O)n(CCCO)c(=O)[nH]/c2=N\c2ccc(O[C@H](C)C(F)(F)F)cc2)cc1 [Compound I-1953]	16 nM	–	–
Cc1ccc(Cn2c(=O)n(C[C@H](C)C(=O)O)c(=O)[nH]/c2=N\c2ccc(Oc3ccccc3)cc2)cc1 [Compound I-0992]	–	24 nM	–
CC(C)Oc1ccc(/N=c2\[nH]c(=O)n(C[C@@H]3CC(=O)N([C@H](C)c4ccccc4)C3)c(=O)n2Cc2ccc(Cl)cc2)cc1F [Compound I-0662]	22 nM	–	–
CCCOc1ccc(/N=c2\[nH]c(=O)n(C(C)(C)CC(=O)OCC)c(=O)n2Cc2ccc(Cl)cc2)cc1 [Compound I-0821]	50 nM	–	–
CCOc1cc(F)c(/N=c2\[nH]c(=O)n(CCC(=O)O)c(=O)n2Cc2ccc(C)cc2)c(F)c1 [Compound I-2053]	952 nM	–	–
CCn1c(=O)[nH]/c(=N\c2ccc(Oc3ccc(-c4ncn[nH]4)cc3)cc2)n(Cc2ccc(Cl)cc2)c1=O [Compound I-1973]	2 nM	–	–
Cc1[nH]c2ccc(/N=c3\[nH]c(=O)n(CCOC4CCCCO4)c(=O)n3Cc3ccc(Cl)cc3)cc2c1C (centres unmarked) [Compound I-2038]	13 nM	–	–
